Laboratory results from ChEMBL document CHEMBL4619828, “Discovery of Potent and Orally Bioavailable Small Molecule Antagonists of Toll-like Receptors 7/8/9 (TLR7/8/9)” (ACS Med Chem Lett, 2020).

What was measured:
[1] = target: T1, Toll-like receptor 9 (Homo sapiens, UniProt Q9NR96); assay: Antagonist activity at TLR9 in human pDC assessed as inhibition of ODN2216-induced IFN-alpha production incubated for 24 hrs measured by ELISA
T1 sequence (Q9NR96 whole entry): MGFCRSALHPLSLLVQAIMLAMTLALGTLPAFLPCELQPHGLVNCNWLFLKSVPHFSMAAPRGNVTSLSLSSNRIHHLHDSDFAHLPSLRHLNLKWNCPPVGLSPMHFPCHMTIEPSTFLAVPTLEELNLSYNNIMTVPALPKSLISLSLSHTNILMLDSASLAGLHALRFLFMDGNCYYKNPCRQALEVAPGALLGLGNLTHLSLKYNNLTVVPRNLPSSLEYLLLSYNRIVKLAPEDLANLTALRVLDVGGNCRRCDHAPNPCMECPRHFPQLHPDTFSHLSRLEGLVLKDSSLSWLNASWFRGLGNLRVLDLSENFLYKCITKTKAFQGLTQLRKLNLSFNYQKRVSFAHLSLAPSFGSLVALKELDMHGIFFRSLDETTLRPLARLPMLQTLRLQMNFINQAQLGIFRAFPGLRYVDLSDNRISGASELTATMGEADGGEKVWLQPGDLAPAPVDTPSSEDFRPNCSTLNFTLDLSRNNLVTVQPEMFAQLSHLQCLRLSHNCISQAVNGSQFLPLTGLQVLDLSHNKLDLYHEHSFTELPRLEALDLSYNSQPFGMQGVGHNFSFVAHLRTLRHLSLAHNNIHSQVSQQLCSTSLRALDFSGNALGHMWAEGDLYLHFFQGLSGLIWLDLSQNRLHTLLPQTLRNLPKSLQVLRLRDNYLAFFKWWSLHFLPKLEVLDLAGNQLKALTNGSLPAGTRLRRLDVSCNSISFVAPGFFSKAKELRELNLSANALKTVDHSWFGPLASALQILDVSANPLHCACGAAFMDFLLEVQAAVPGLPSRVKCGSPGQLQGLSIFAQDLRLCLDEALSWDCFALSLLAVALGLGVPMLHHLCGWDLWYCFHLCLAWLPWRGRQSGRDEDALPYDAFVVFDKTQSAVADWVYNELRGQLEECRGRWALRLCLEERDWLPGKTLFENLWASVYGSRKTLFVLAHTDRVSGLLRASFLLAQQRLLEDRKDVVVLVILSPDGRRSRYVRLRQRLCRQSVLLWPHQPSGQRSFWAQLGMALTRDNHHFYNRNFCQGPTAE

[2] = Clearance in mouse at 3 mg/kg, iv; type: ADME, organism-based; conditions: in vivo
[3] = target: T2, Toll-like receptor 9 (Mus musculus, UniProt Q9EQU3)
T2 sequence (Q9EQU3 whole entry): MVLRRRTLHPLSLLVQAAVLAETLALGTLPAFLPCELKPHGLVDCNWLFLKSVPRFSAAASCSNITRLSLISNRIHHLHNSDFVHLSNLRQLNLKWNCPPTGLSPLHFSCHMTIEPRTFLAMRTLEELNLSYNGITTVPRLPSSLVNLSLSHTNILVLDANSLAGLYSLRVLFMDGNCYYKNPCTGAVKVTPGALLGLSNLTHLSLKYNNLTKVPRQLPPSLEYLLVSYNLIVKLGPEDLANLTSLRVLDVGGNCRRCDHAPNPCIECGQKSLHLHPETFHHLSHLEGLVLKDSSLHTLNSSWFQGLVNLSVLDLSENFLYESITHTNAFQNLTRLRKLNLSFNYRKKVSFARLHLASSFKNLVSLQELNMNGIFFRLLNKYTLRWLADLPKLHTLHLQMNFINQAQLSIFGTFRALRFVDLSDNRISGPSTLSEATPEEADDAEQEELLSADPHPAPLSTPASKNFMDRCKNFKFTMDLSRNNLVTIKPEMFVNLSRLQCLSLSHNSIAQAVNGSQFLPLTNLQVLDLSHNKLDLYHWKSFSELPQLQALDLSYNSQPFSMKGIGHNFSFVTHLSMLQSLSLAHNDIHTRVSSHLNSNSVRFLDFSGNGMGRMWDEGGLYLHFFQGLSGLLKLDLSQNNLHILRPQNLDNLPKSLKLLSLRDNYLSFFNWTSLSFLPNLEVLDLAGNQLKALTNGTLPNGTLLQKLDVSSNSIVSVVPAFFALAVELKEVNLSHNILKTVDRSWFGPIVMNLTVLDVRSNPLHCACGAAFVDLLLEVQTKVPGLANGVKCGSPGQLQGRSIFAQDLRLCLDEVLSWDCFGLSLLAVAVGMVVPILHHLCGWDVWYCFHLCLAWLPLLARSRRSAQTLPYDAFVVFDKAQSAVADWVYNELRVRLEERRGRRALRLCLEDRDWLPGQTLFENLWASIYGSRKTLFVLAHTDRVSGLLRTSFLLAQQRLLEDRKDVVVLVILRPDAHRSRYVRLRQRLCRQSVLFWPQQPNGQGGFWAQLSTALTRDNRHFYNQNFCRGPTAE
Description: In vivo antagonist activity at TLR9 in po dosed C57BL/6 mouse assessed as reduction of CpG-ODN-1585-induced IL-6 production pretreated for 30 mins followed by CpG-ODN-1585-stimulation and measured after 120 mins by ELISA

IC50 [1]: 210 nM
clearance [2]: 7.7 mL/min/kg
EC50 [3]: 25 nM
Compound: CNCCN1CCC(c2ccc3[nH]c(-c4ccc(OC)c(OC)c4)c(C(C)C)c3c2)CC1
